Assay results as given in ChEMBL document CHEMBL4622995, “Aryl Ether-Derived Sphingosine-1-Phosphate Receptor (S1P1) Modulators: Optimization of the PK, PD, and Safety Profiles” (ACS Med Chem Lett, 2020).

Legend:
[1] = Cardiotoxicity in human iPSC derived cardiomyocytes assessed as reduction in beating rate at 10 nM; format: toxicity, cell-based, Cardiac muscle cell
[2] = Cardiotoxicity in human iPSC derived cardiomyocytes assessed as reduction in beating rate at 1 nM; format: toxicity, cell-based, Cardiac muscle cell
Rattus norvegicus [3] = test: Reduction in circulating lymphocytes count in Lewis rat peripheral blood at 2 mg/kg, po measured after 24 hrs by hematology analyzer based analysis; format: functional
[4] = Elimination half-life in Lewis rat at 2 mg/kg, po; format: ADME, organism-based; conditions: in vivo, read-out: beta t1/2 (converted)
Rattus norvegicus [5] = test: Reduction in circulating lymphocytes count in Lewis rat peripheral blood at 0.1 mg/kg, po measured after 24 hrs by hematology analyzer based analysis; format: functional
Rattus norvegicus [6] = test: Reduction in circulating lymphocytes count in Lewis rat peripheral blood at 0.3 mg/kg, po measured after 24 hrs by hematology analyzer based analysis; format: functional
[7] = Elimination half-life in Lewis rat at 0.3 mg/kg, po; format: ADME, organism-based; conditions: in vivo, read-out: beta t1/2 (converted)
[8] = Pulmonary toxicity in Lewis rat assessed as elevation of BAL protein content at 2 mg/kg, po; format: organism-based; conditions: in vivo
Sphingosine kinase 2 [9] = target: T1, Sphingosine kinase 2 (Rattus norvegicus, UniProt A6JB73); test: Drug metabolism in Sprague-Dawley rat assessed as SphK2-mediated compound phosphorylation by measuring ratio of phosphorylated compound to parent compound measured after 24 hrs; format: ADME
T1 sequence (A6JB73 whole entry): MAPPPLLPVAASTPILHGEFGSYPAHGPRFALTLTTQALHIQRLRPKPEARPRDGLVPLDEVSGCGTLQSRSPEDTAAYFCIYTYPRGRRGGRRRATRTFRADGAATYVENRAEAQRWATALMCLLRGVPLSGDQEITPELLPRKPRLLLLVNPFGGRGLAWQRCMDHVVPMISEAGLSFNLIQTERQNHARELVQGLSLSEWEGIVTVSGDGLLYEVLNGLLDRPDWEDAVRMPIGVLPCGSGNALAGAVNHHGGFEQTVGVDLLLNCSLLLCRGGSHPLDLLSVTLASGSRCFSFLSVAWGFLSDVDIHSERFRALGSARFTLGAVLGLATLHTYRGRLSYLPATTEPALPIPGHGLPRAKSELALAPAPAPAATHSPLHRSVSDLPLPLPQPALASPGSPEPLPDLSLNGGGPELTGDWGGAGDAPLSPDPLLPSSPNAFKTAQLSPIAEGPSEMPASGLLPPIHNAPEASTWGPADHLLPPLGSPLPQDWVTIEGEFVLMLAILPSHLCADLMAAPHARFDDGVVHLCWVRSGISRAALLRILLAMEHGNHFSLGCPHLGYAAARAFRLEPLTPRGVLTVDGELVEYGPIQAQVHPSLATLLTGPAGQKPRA

[10] = Drug metabolism in Cynomolgous monkey assessed as SphK2-mediated compound phosphorylation by measuring ratio of phosphorylated compound to parent compound measured after 24 hrs; format: ADME, Macaca fascicularis; conditions: cynomolgus monkey
Rattus norvegicus [11] = test: Reduction in circulating lymphocytes count in Lewis rat peripheral blood at 1 mg/kg, po measured after 24 hrs by hematology analyzer based analysis; format: functional
Rattus norvegicus [12] = test: Reduction in circulating lymphocytes count in Lewis rat peripheral blood at 0.05 mg/kg, po measured after 24 hrs by hematology analyzer based analysis; format: functional
Rattus norvegicus [13] = test: Reduction in circulating lymphocytes count in po dosed Lewis rat peripheral blood measured after 24 hrs by hematology analyzer based analysis; format: functional
[14] = Pulmonary toxicity in Lewis rat assessed as elevation of BAL protein content at >30XED50, po; conditions: in vivo
Rattus norvegicus [15] = test: Reduction in circulating lymphocytes count in Lewis rat peripheral blood at 1.5 mg/kg, po measured after 24 hrs by hematology analyzer based analysis; format: functional
[16] = Elimination half-life in po dose Lewis rat; format: ADME, organism-based; conditions: in vivo, read-out: beta t1/2
Sphingosine kinase 2 [17] = target: T2, Sphingosine kinase 2 (Homo sapiens, UniProt Q9NRA0); test: Drug metabolism in human assessed as SphK2-mediated compound phosphorylation by measuring ratio of phosphorylated compound to parent compound measured after 24 hrs; format: ADME
T2 sequence (Q9NRA0 whole entry): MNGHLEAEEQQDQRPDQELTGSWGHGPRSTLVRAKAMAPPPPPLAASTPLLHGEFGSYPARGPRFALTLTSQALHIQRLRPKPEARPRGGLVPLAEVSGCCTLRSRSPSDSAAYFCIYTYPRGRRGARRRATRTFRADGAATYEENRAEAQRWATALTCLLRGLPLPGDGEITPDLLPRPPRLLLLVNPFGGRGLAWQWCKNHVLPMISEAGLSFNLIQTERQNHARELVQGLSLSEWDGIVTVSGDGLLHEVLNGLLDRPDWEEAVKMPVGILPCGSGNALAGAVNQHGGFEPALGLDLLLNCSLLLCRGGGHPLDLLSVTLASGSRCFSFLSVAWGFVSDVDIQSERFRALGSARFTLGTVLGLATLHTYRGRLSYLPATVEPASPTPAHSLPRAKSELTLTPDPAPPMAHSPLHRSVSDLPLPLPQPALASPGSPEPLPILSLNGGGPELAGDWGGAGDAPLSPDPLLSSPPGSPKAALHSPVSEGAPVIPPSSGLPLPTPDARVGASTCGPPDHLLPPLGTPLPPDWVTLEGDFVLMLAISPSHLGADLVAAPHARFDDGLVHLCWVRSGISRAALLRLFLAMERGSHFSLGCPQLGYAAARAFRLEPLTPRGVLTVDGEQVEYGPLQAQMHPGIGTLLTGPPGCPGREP

Homo sapiens = species on record: Homo sapiens; test: Reduction in absolute lymphocytes count in human at 1.5 mg/day; format: functional

Compound: CCCCCC[C@@H]1CCc2cc([C@H]3CC[C@](N)(COP(=O)(O)O)C3)ccc2C1
- inhibition at 0.01 µM [1]: 32%
- inhibition at 0.001 µM [2]: 1%

Compound: N[C@]1(CO)CC[C@H](c2ccc3c(c2)CC[C@@H](COc2ccc(F)cc2)C3)C1
- inhibition in vivo at 2 mg/kg (Rattus norvegicus [3]): 74%
- half-life [4]: 2760 min

Compound: COc1ccc(OC[C@@H]2CCc3cc([C@H]4CC[C@](N)(CO)C4)ccc3C2)cc1
- inhibition in vivo at 2 mg/kg (Rattus norvegicus [3]): 47%
- half-life [4]: < 600 min

Compound: COc1ccccc1CC[C@H]1CCc2cc([C@H]3CC[C@](N)(CO)C3)ccc2C1
- inhibition in vivo at 0.1 mg/kg (Rattus norvegicus [5]): 17%

Compound: COc1cccc(CO[C@H]2CCc3cc([C@H]4CC[C@](N)(CO)C4)ccc3C2)c1
- inhibition in vivo at 0.3 mg/kg (Rattus norvegicus [6]): 13%

Compound: N[C@]1(CO)CC[C@H](c2ccc3c(c2)CC[C@H](COCc2ccccc2)C3)C1
- inhibition in vivo at 0.3 mg/kg (Rattus norvegicus [6]): 0%

Compound: N[C@]1(CO)CC[C@H](c2ccc3c(c2)CC[C@@H](COCc2ccccc2)C3)C1
- half-life [7]: 660 min
- inhibition in vivo at 0.3 mg/kg (Rattus norvegicus [6]): 49%

Compound: COc1ccccc1CC[C@@H]1CCc2cc([C@H]3CC[C@](N)(COP(=O)(O)O)C3)ccc2C1
- inhibition at 0.01 µM [1]: 27%
- inhibition at 0.001 µM [2]: 11%

Compound: COc1ccccc1OC[C@@H]1CCc2cc([C@H]3CC[C@](N)(COP(=O)(O)O)C3)ccc2C1
- inhibition at 0.01 µM [1]: 43%
- inhibition at 0.001 µM [2]: 20%

Compound: Cc1ccc(OC[C@@H]2CCc3cc([C@H]4CC[C@](N)(CO)C4)ccc3C2)cc1
- inhibition in vivo at 2 mg/kg (Rattus norvegicus [3]): 20%
- half-life [4]: 2100 min

Compound: COc1ccccc1OC[C@@H]1CCc2cc([C@H]3CC[C@](N)(CO)C3)ccc2C1
- inhibition in vivo at 2 mg/kg (Rattus norvegicus [3]): 85%
- half-life [4]: 840 min

Compound: COc1cccc(OC[C@H]2CCc3cc([C@H]4CC[C@](N)(CO)C4)ccc3C2)c1
- inhibition in vivo at 0.3 mg/kg (Rattus norvegicus [6]): 70%

Compound: N[C@]1(CO)CC[C@H](c2ccc3c(c2)CC[C@H](CSc2ccccc2)C3)C1
- inhibition in vivo at 0.3 mg/kg (Rattus norvegicus [6]): 29%

Compound: COc1ccc(OC[C@@H]2CCc3cc([C@H]4CC[C@](N)(CO)C4)ccc3C2)c(F)c1F
- inhibition in vivo at 2 mg/kg (Rattus norvegicus [3]): 48%

Compound: COc1ccccc1SC[C@@H]1CCc2cc([C@H]3CC[C@](N)(CO)C3)ccc2C1
- inhibition in vivo at 2 mg/kg (Rattus norvegicus [3]): 78 to 79%
- Activity [8]: 67%
- half-life [4]: 1440 min

Compound: COc1cccc(COC[C@@H]2CCc3cc([C@H]4CC[C@](N)(CO)C4)ccc3C2)c1
- inhibition in vivo at 0.3 mg/kg (Rattus norvegicus [6]): 40%

Compound: COc1cccc(OC[C@@H]2CCc3cc([C@H]4CC[C@](N)(COP(=O)(O)O)C4)ccc3C2)c1
- inhibition at 0.01 µM [1]: 30%
- inhibition at 0.001 µM [2]: 13%

Compound: COc1cccc(OC[C@@H]2CCc3cc([C@H]4CC[C@](N)(CO)C4)ccc3C2)c1
- Ratio (Sphingosine kinase 2 [9]): 1.5
- Ratio [10]: 1.3
- inhibition in vivo at 2 mg/kg (Rattus norvegicus [3]): 86%
- half-life [7]: 1440 min
- inhibition in vivo at 1 mg/kg (Rattus norvegicus [11]): 80%
- inhibition in vivo at 0.05 mg/kg (Rattus norvegicus [12]): 72%
- ED50 (Rattus norvegicus [13]): < 0.05 mg/kg
- half-life [4]: 1440 min
- Activity [14]: Non-Toxic
- inhibition in vivo at 1.5 mg/kg (Rattus norvegicus [15]): 81%
- inhibition in vivo at 0.3 mg/kg (Rattus norvegicus [6]): 80%

Compound: COc1ccccc1SC[C@@H]1CCc2cc([C@H]3CC[C@](N)(COP(=O)(O)O)C3)ccc2C1
- inhibition at 0.01 µM [1]: 26%
- inhibition at 0.001 µM [2]: 16%

Compound: N[C@]1(COP(=O)(O)O)CC[C@H](c2ccc3c(c2)CC[C@@H](COCc2ccccc2)C3)C1
- inhibition at 0.01 µM [1]: 52%
- inhibition at 0.001 µM [2]: 16%

Compound: COc1cccc(CO[C@@H]2CCc3cc([C@H]4CC[C@](N)(CO)C4)ccc3C2)c1
- inhibition in vivo at 0.3 mg/kg (Rattus norvegicus [6]): 15%

Compound: COc1cccc(SC[C@@H]2CCc3cc([C@H]4CC[C@](N)(COP(=O)(O)O)C4)ccc3C2)c1
- inhibition at 0.01 µM [1]: 44%
- inhibition at 0.001 µM [2]: 30%

Compound: COc1ccc(OC[C@@H]2CCc3cc([C@H]4CC[C@](N)(CO)C4)ccc3C2)cc1C(C)(C)C
- inhibition in vivo at 2 mg/kg (Rattus norvegicus [3]): 53%

Compound: N[C@]1(CO)CC[C@H](c2ccc3c(c2)CC[C@@H](CSc2ccccc2)C3)C1
- inhibition in vivo at 2 mg/kg (Rattus norvegicus [3]): 73%
- half-life [4]: 1200 min
- inhibition in vivo at 0.3 mg/kg (Rattus norvegicus [6]): 31%

Compound: COc1ccc(COC[C@@H]2CCc3cc([C@H]4CC[C@](N)(CO)C4)ccc3C2)cc1
- inhibition in vivo at 0.3 mg/kg (Rattus norvegicus [6]): 33%

Compound: COc1cccc(SC[C@@H]2CCc3cc([C@H]4CC[C@](N)(CO)C4)ccc3C2)c1
- inhibition in vivo at 2 mg/kg (Rattus norvegicus [3]): 81%
- half-life [4]: 1260 min

Compound: CCCCCC[C@@H]1CCc2cc([C@H]3CC[C@](N)(CO)C3)ccc2C1 [BMS-986104]
- Ratio (Sphingosine kinase 2 [9]): 2.5
- Ratio [10]: 0.3
- half-life [16]: > 4.17 days
- Ratio (Sphingosine kinase 2 [17]): 0.1
- ED50 (Rattus norvegicus [13]): 0.25 mg/kg

Compound: COc1ccccc1CC[C@@H]1CCc2cc([C@H]3CC[C@](N)(CO)C3)ccc2C1 [UDIFITIMOD]
- Ratio (Sphingosine kinase 2 [9]): 5.2
- inhibition (INH) (Homo sapiens): >80%
- Ratio [10]: 1
- inhibition in vivo at 2 mg/kg (Rattus norvegicus [3]): 81%
- Ratio (Sphingosine kinase 2 [17]): 0.6
- ED50 (Rattus norvegicus [13]): 0.1 mg/kg
- half-life [4]: 1620 min
- inhibition in vivo at 0.1 mg/kg (Rattus norvegicus [5]): 53%
